Assay results: article PMC4935942, “Efficient Inhibition of Hepatitis B Virus Infection by a preS1-binding Peptide” (Scientific Reports, 2016)
Read-outs that look alike come from different tables or passages of the source. Where no end group is shown, it is not given here.

Columns and labels:
[1] = tested on: HBV infection of PTH
Protocol: (§6) Freshly isolated PTH were seeded into collagen-coated 6-well plates (BD Biosciences, San Jose, CA) and maintained in Hepato-Stim Hepatocyte Defined medium (HDM) (BD Biosciences) at 5 × 10^5 cells per well. Twenty-four hours post-seeding, PTH were infected with concentrated viruses prepared from HepAD38 supernatants (genotype D) at a multiplicity of infection (MOI) of 100 GE per cell. […] After incubation at 37 °C overnight, cells were washed 5 times with PBS and cultivated for 12 days. For HBV infection of PHH, freshly prepared PHH were seeded into collagen-coated wells in supplemented WEM at 5 × 10^5 cells per well. […] PTH and PHH culture media were changed every two days, and hepatitis B surface antigen (HBsAg) and e antigen (HBeAg) in collected supernatants were determined using enzyme linked immunosorbent assay (ELISA) kits (Kehua). All infections were repeated at least twice.

[2] = tested on: PMH; conditions: 4B10 0.01 μM, 1 μM and 100 μM, or LA-20; 72 h; CCK-8
Protocol: (§7) To rule out potential cytotoxicity of the peptides, the viability of cells exposed to 4B10 (0.01 μM, 1 μM and 100 μM) or LA-20 for 72 hours was analyzed.
(§8) For PTH, cells were cultured in medium containing 4B10 and LA-20 (0.01 μM, 1 μM or 100 μM) and viability measured using cell counting kit-8 (CCK-8) (Dojindo, Japan).

[3] = tested on: preS1/2-48^myr; assay: preS1/2-48^myr-FITC binding to immobilized N-biotinylated B10 monomer/concatemers; design: species or system HBV (genotype D); conditions: N-biotinylated peptide 2 μg/well on streptavidin-coated wells; 1 h at room temperature; fluorescence
Protocol: (§1) The N-biotinylated B10 monomer or concatemers (Fig. 1A) (2 μg/well) was applied into the streptavidin-coated wells and incubated for 45 minutes at room temperature. Wells were washed with PBST (0.05% Tween 20 in PBS). […] Excess preS1/2-48^myr-FITC peptides were removed with PBST. Fluorescence intensity was then measured using a VICTOR X multilabel reader (Perkin Elmer, Waltham, MA). In virus capture assays, 1 × 10^6 viruses from pooled HBV positive serum (Ruijin Hospital, Shanghai) were applied per well. After incubation at 4 °C for 4 hours, wells were washed and 100 μl of horseradish peroxidase-labeled HBsAg antibody (Kehua, Shanghai, China) was added and incubated for 1 hour at room temperature. The absorbance at 450 nm was measured.

[4] = tested on: HIV-1; conditions: TZM-bl cells; strains B12 and SH1.81, 200 TCID50; 4B10 up to 100 μM; luciferase, 48 h post infection
Protocol: The infection of two strains of tat-expressing, replication deficient HIV-1, B12 and SH1.81, was tested on TZM-bl cells harboring HIV-1 LTR-luciferase reporter[30]. Envelope proteins of B12 and SH1.81 were derived from HIV-1 B and A/E recombinant subtype, respectively. […] Forty-eight hours post infection, intracellular luciferase activity was measured with a luciferase assay kit (Promega, Madison, WI).

[5] = tested on: HBV attachment to PMH; assay: HBV attachment to PMH (real-time PCR); type: cell-based, Hepatitis B virus; conditions: 1 × 10^7 GE/well viruses pre-incubated 30 min at 37 °C, 4 h at 37 °C, triplicate, repeated at least three times
Protocol: (§2) For HBV attachment assays, viruses in HepAD38 supernatants were precipitated in 10% polyethylene glycol (PEG) 8000 (Sangon) for 16 hours at 4 °C, centrifuged at 7,000 × g for 1 hour at 4 °C and resuspended in DMEM. Viral titers were determined using a real-time PCR kit (Qiagen, Düsseldorf, Germany) and represented as genome equivalent per milliliter (GE/ml). […] After incubation at 37 °C for 4 hours, cells were washed repeatedly with ice-cold PBS. Viral DNA was prepared from cell lysate with DNeasy Blood Kit (Qiagen) and quantified using real-time PCR with primers 5′-[…] -3′ and 5′-[…] -3′.

[6] = tested on: primary mouse hepatocytes (PMH); assay: Flow cytometry binding of FITC-labelled peptides to PMH; conditions: discussion; Fig. 3A
[7] = tested on: HBV attachment to PMH; assay: HBV attachment to PMH (immunofluorescent staining of cell-bound HBsAg); type: cell-based, Hepatitis B virus; conditions: 1 μM; immunofluorescence
Protocol: as §2
(§3) PHH at 14 days post infection and PTH at 12 days post infection were washed 3 times with ice-cold PBS and fixed in 3.7% paraformaldehyde in PBS for 15 min at room temperature. Cells were washed, permeabilized with 0.5% Triton X-100 in PBS, washed again and incubated in 1% BSA in PBST for 30 minutes at room temperature. Cells were then stained with a polyclonal rabbit anti-HBcAg (1:700 dilution, Dako, Inc, Carpinteria, CA) overnight at 4 °C in a humidified chamber. After washing, PHH and PTH were incubated with Alexa Fluor 488 goat anti-rabbit IgG (H+L) and Alexa Fluor 546 goat anti-rabbit IgG (H+L) (1:1000 dilution, Life Technologies, USA) for 1 hour at room temperature in dark, respectively. After 3 washes in dark, cells were stained with DAPI for 10 minutes at room temperature. […]

[8] = tested on: VSV-G pseudotyped lentivirus; type: cell-based
[9] = tested on: HBV particles; assay: HBV virus capture assay; type: binding, Hepatitis B virus; conditions: 1 × 10^6 viruses per well from pooled HBV positive serum; 4 °C for 4 h; HRP-labeled HBsAg antibody, absorbance at 450 nm
Protocol: as §1

[10] = tested on: HBV infection of PHH; assay: Intracellular HBcAg expression in HBV-infected PHH (immunofluorescence); type: cell-based, Hepatitis B virus; conditions: day 14 post-infection
Protocol: (§4) All infections were repeated at least twice.
(§5) PHH at 14 days post infection and PTH at 12 days post infection were washed 3 times with ice-cold PBS and fixed in 3.7% paraformaldehyde in PBS for 15 min at room temperature. Cells were washed, permeabilized with 0.5% Triton X-100 in PBS, washed again and incubated in 1% BSA in PBST for 30 minutes at room temperature. Cells were then stained with a polyclonal rabbit anti-HBcAg (1:700 dilution, Dako, Inc, Carpinteria, CA) overnight at 4 °C in a humidified chamber. After washing, PHH and PTH were incubated with Alexa Fluor 488 goat anti-rabbit IgG (H+L) and Alexa Fluor 546 goat anti-rabbit IgG (H+L) (1:1000 dilution, Life Technologies, USA) for 1 hour at room temperature in dark, respectively. After 3 washes in dark, cells were stained with DAPI for 10 minutes at room temperature. For detection of HBV attached to PMH and HepG2 cells, cells were stained with a mouse monoclonal anti-HBsAg (1:1000 dilution, Dako) followed by Alexa Fluor 488 goat anti-mouse IgG (H+L) (1:1000 dilution, Life Technologies). Cells were examined under a confocal microscope (Leica Biosystems).

[11] = tested on: binding of preS1/2-48^myr-FITC to PMH; assay: Inhibition of preS1/2-48^myr-FITC binding to PMH; type: cell-based, mouse (C57BL/6); conditions: 0.5 μM preS1/2-48^myr-FITC, 100 μM peptide (200-fold molar excess), 4 h at 37 °C; confocal microscopy
Protocol: PMH and HepG2 cells were seeded into 12-well plates at a density of 1 × 10^5 cells per well and cultured in WEM and DMEM without FBS respectively. […] Cell nuclei were stained with DAPI (4′6′-diamidino-2-phenylindole) (Sangon, Shanghai, China) for 10 minutes at room temperature. Cells were examined using a confocal microscope (Leica Biosystems, Germany).

[12] = tested on: HBV attachment to HepG2 cells; assay: HBV attachment to HepG2 cells; type: cell-based, Hepatitis B virus; conditions: real-time PCR and immunofluorescent staining of HBsAg; viruses pre-incubated with 4B10 0.1 nM, 10 nM or 1 μM
Protocol: as §2, §3

[13] = tested on: HBV infection of PTH; assay: Intracellular HBcAg expression in HBV-infected PTH (immunofluorescence); type: cell-based, Hepatitis B virus; conditions: day 12 post-infection
Protocol: as §4, §5

[14] = tested on: HepG2 cells; conditions: 4B10 0.01 μM, 1 μM and 100 μM, or LA-20; 72 h; CCK-8
Protocol: as §7, §8

[15] = tested on: PHH; conditions: 0.05 nM to 500 μM; 24 h; CellTiter-Glo
Protocol: PHH and PTH were seeded into collagen-coated 96-well plates at 5 × 10^4 cells per well.

[16] = tested on: HBV infection of PHH; assay: HBV infection of primary human hepatocytes; conditions: for IC50: pooled patient sera (genotypes B and C), MOI 400, day 14 post infection, ELISA, printed with 'about'
Protocol: as §6

[17] = PTH, 4B10 0.01-100 nM or LA-20 100 nM, ELISA

## LRNIRLRNIRLRNIRLRNIR [4B10]
[1]
  inhibition of HBV infection of primary tupaia hepatocytes: low nanomolar concentrations
[1]; [17]
  effect on post-infection HBeAg expression: dose-dependent decrease
  effect on post-infection HBsAg expression: dose-dependent decrease
[1]; infection of PTH
  IC50: 0.1 to 1 nM
[1]; viruses derived from HepAD38 cells
  inhibition of infection by genotype D viruses: could inhibit the infection of genotype B and C viruses from HBV-infected patients as well as genotype D viruses
[2]
  cytotoxic effect on PMH: No notable cytotoxic effect
[3]
  preS1-binding activity (preS1/2-48^myr-FITC): showed the highest binding activity
[4]
  inhibitory effect on infection of HIV-1: no inhibitory effect
[5]; 0.1 nM
  reduction of PMH-associated virions: 39%
[5]; 10 nM
  reduction of PMH-associated virions: 56%
[5]; 1 μM
  reduction of PMH-associated virions: 74%
[6]
  binding to primary hepatocytes: does not bind
[7]
  HBV attachment to PMH (HBsAg staining): markedly reduced
[8]
  inhibitory effect on infection of VSV-G pseudotyped lentivirus: no inhibitory effect
[9]
  HBV-binding activity: showed the highest binding activity
[10]
  post-infection HBcAg expression: dose-dependent decrease in post-infection HBcAg expression
[11]
  inhibition of binding of preS1/2-48^myr-FITC to PMH: completely blocked
[12]
  HBV attachment to HepG2 cells: inhibited HBV attachment to HepG2 cells
[13]
  post-infection HBcAg expression: dose-dependent decrease in post-infection HBcAg expression
[14]
  cytotoxic effect on HepG2 cells: No notable cytotoxic effect
[15]
  cytotoxic effect on PHH: No cytotoxicity was observed
[16]; PHH, 4B10 0.05-500 nM
  inhibition of HBV infection (in words): Dose-dependent and efficient inhibition of HBV infection
[16]; abstract
  inhibition of HBV infection of primary human hepatocytes: low nanomolar concentrations
[16]; read-out: IC50 based on HBeAg measurement, PHH
  IC50: 0.5 to 5 nM
[16]; read-out: IC50 based on HBsAg measurement, PHH
  IC50: 0.05 to 0.5 nM
[16]; viruses from HBV-infected patients
  inhibition of infection by genotype B and C viruses: could inhibit the infection of genotype B and C viruses
